Assay [1] concerns the target T1, Fpr2 (Mus musculus, UniProt O88536).
T1 construct: WT mouse neutrophils (5 x 10^4 cells) were pre-incubated without (solid line) or with mF2Pal16; endogenous in cells; host or cells: bone marrow neutrophils of C57BL/6 wild-type mice, TNF-alpha primed
T1 sequence (O88536 1-351): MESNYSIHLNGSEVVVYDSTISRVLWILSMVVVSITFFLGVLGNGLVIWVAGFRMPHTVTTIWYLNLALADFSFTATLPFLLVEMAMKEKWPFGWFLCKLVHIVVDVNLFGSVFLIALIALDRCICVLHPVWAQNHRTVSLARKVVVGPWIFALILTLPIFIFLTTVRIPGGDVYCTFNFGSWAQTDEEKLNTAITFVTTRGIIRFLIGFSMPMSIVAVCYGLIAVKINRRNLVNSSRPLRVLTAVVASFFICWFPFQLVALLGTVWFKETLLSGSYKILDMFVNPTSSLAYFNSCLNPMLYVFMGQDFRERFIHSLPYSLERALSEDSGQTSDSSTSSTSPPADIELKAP
The assay is described as follows: Inhibition of PSMα2-induced superoxide release, WT mouse neutrophils. Format: cell-based. Particulars: mF2Pal16 500 nM, 5 min pre-incubation; PSMα2 10 nM. The text has this:
Mice (8–12 weeks of age) were killed by cervical dislocation, the femurs and tibias were removed and freed of soft tissue attachments, and the extreme distal tip of each extremity was cut off. KRG without Ca^2+ and Mg^2+ (KRG-) was forced through the bone by using a 1-mL syringe with a 27-gauge needle. After dispersing cell clumps and removing the debris, the bone marrow granulocytes were isolated according to an earlier described procedure with some modifications. Briefly, a cell suspension in 2 mL of KRG- was laid on top of a three-layer Percoll gradient (1.095, 1.085, and 1.070 g/mL). The density of each Percoll solution was verified using density marker beads. […] The cell number and population of bone marrow cells were determined by flow cytometry based on forward scatter (size) and side scatter (density) localization.
NADPH-oxidase activity was determined using an isoluminol and HRP-enhanced chemiluminescence (CL) system that allow for the determination of superoxide production. The CL activity was measured in a six-channel Biolumat LB 9505 apparatus (Berthold Co., Wildbad, Germany), using disposable 4-mL polypropylene tubes with 1 mL reaction mixture. […] The light emission was recorded continuously over time and presented as superoxide production (in arbitrary light units, cpm x10^-6) as a function of time (min). […]

Assay [2] has as its target T2, FPR2 (Homo sapiens, UniProt P25090).
T2 construct: Human peripheral blood neutrophils were isolated from buffy coats from healthy blood donors; endogenous in cells; host or cells: human peripheral blood neutrophils from buffy coats of healthy donors
T2 sequence (P25090 1-351): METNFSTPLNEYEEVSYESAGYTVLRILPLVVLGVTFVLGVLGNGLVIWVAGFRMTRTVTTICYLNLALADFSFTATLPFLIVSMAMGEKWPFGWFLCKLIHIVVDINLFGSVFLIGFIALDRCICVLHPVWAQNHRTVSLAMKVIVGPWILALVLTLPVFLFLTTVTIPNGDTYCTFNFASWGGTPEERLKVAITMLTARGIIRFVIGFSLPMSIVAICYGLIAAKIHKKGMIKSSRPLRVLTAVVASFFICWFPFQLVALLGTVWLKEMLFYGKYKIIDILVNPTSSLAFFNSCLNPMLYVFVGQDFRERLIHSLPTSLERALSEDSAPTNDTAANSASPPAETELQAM
The assay is described as follows: Inhibition of WKYMVM-induced superoxide release, human neutrophils. Format: cell-based. An excerpt: Human peripheral blood neutrophils were isolated from buffy coats from healthy blood donors using dextran sedimentation and Ficoll-Paque gradient centrifugation as described. The remaining erythrocytes were disrupted by hypotonic lysis and the neutrophils were washed twice, suspended in KRG and, stored on melting ice until use. This isolation process permits cells to be purified with minimal granule mobilization. The buffy coats were obtained from the blood bank at Sahlgrenska University Hospital. Ethics approval was not needed since the buffy coats were provided anonymously and could not be traced back to a specific individual. This is in line with Swedish legislation section code 4§ 3p SFS 2003:460 (Lag om etikprövning av forskning som avser människor).
NADPH-oxidase activity was determined using an isoluminol and HRP-enhanced chemiluminescence (CL) system that allow for the determination of superoxide production. The CL activity was measured in a six-channel Biolumat LB 9505 apparatus (Berthold Co., Wildbad, Germany), using disposable 4-mL polypropylene tubes with 1 mL reaction mixture. The tubes contained 4 U HRP and 10 μg/mL isoluminol together with the cells that were equilibrated in the Biolumat for 5 min at 37°C, after which the stimulus solution (100 μL) was added. The light emission was recorded continuously over time and presented as superoxide production (in arbitrary light units, cpm x10^-6) as a function of time (min). The activity before stimulus addition was recorded as basal line and this activity was not changed in vehicle control samples. […]
Data analysis was performed using Graph Pad Prism 7.0. The EC50/IC50 values were determined from experiments in which the activities were normalized to the response induced by maximal response or induced by agonist in the absence of inhibitor. […]
Human neutrophils (10^5 cells) were pre-incubated without (solid line) or with mF2Pal16 (1 μM) for 5 min before stimulation with A) the FPR2 specific agonist WKYMVM (50 nM, indicated by the arrow). […] The release of superoxide anions was measured continuously. […]

SMILES strings stand for the structures. Residues, ends and D or L forms follow the SMILES beside them. *: point of attachment. Palmitoyl = CCCCCCCCCCCCCCCC(=O)*

Regarding `CCCCCCCCCCCCCCCC(=O)N[C@@H](CCCCN)C(=O)N[C@H](C(=O)N[C@@H](CC(N)=O)C(=O)N[C@@H](CCCNC(=N)N)C(=O)N[C@@H](CCCNC(=N)N)C(=O)N[C@@H](CC(N)=O)C(=O)N[C@@H](CC(C)C)C(=O)N[C@H](C(=O)N[C@@H](CC(N)=O)C(=O)N[C@@H](CO)C(=O)N[C@@H](CO)C(=O)N[C@@H](CCCNC(=N)N)C(=O)N1CCC[C@H]1C(=O)N[C@@H](CC(C)C)C(=O)N[C@@H](CCCNC(=N)N)C(=O)N[C@H](C(=O)O)C(C)C)C(C)C)[C@@H](C)CC` [mF2Pal16] (Palmitoyl-KINRRNLVNSSRPLRV-OH; C-terminus assumed), on Fpr2 [1], the “inhibition of PSMα2 response, mouse neutrophils” value is recorded as “potently inhibited”. Besides, the “magnitude of FPR2 inhibitory effect compared with PBP10” value at FPR2 [2] (human neutrophils) is “not of the same magnitude as that of the most potent FPR2 inhibitor PBP10”. In addition, at FPR2 [2] (pepducin 1 μM pre-incubated (mF2Pal16, F1Pal16: 5 min), WKYMVM 50 nM), the “effect on WKYMVM response, human neutrophils” value is on record as “largely inhibited”.

The values are drawn from paper PMC5608352, “Formyl peptide derived lipopeptides disclose differences between the receptors in mouse and men and call the pepducin concept in question” (PLoS ONE, 2017).
